The test system of one series is Staphylococcus aureus. The series can be described thus: Antibacterial activity against Staphylococcus aureus assessed as growth inhibition incubated for 24 hrs at 37 degC by agar well diffusion method. In kind it is functional. (In general: In agar diffusion tests the substance spreads into inoculated agar from a disc or well.)
For another series, the system named is MCF7. Kind of series: Cytotoxicity against human MCF7 cells assessed as cell death after 24 hrs by MTT assay. The settings on record: MCF7, 24 h. The series is classed as functional, cell-based. A general note: Tetrazolium dyes change colour on reduction, which living cells bring about.
For a further series, the system named is HeLa. The series can be described thus: Cytotoxicity against human HeLa cells assessed as cell death after 24 hrs by MTT assay. In kind it is functional, cell-based.
The next series has as its system Escherichia coli. The series can be described thus: Antibacterial activity against Escherichia coli assessed as growth inhibition incubated for 24 hrs at 37 degC by agar well diffusion method. The series is classed as functional.
Another series has as its system Salmonella. The series can be described thus: Antibacterial activity against Salmonella assessed as growth inhibition incubated for 24 hrs at 37 degC by agar well diffusion method. The series is classed as functional.
The test system of another series is Bacillus subtilis. Kind of series: Antibacterial activity against Bacillus subtilis assessed as growth inhibition incubated for 24 hrs at 37 degC by agar well diffusion method. In kind it is functional.
Series [1] is described as follows: Stability of the compound in GSH at 10^-5 M after 48 hrs by UV-vis spectroscopic analysis. The series is classed as physicochemical. The settings on record: 10 µM.

Converted amounts (≈) assume the structure as drawn. Bounds are passed on as bounds.

One may read the MIC as the lowest concentration found to suppress growth. In general, IC50 refers to the midpoint of a concentration-inhibition curve. In the case of `Clc1ccccc1-c1nc2ccccc2s1`, the MIC in the series with Staphylococcus aureus, with Escherichia coli, with Salmonella and in the series on Bacillus subtilis was 12.5 µg/mL (≈ 50.9 µM) each time. Further, the IC50 in the series with MCF7 was 10.7 µM; with HeLa, 18.2 µM.
With `Brc1cccc(-c2nc3ccccc3s2)c1`, the MIC in the series on Staphylococcus aureus, with Escherichia coli, in the series with Salmonella and in the series on Bacillus subtilis was 12.5 µg/mL (≈ 43.1 µM) throughout. Moreover, the IC50 was 10.5 µM in the series with MCF7 and 17.4 µM in the series with HeLa.
Consider `COc1cccc(-c2nc3ccccc3s2)c1O`, for which the MIC with Staphylococcus aureus, in the series on Escherichia coli, in the series on Salmonella and with Bacillus subtilis was above 200 µg/mL each time. Also, the 50% inhibitory concentration (IC50) came out at 28.6 µM in the series with MCF7 and 32.6 µM in the series on HeLa.
With `c1csc(-c2nc3ccccc3s2)c1`, the MIC in the series on Staphylococcus aureus came to 12.5 µg/mL (≈ 57.5 µM); in the series with Escherichia coli, 12.5 µg/mL (≈ 57.5 µM); in the series on Salmonella, 25 µg/mL (≈ 115 µM); in the series on Bacillus subtilis it was 25 µg/mL (≈ 115 µM). The IC50 in the series with MCF7 amounted to 22.6 µM; in the series on HeLa, 28.5 µM.
As for `c1ccc(-c2nc3ccccc3s2)nc1`, the minimal inhibitory concentration (MIC) with Staphylococcus aureus was determined as 6.25 µg/mL (≈ 29.4 µM); in the series on Escherichia coli it was 12.5 µg/mL (≈ 58.9 µM); in the series with Salmonella, 12.5 µg/mL (≈ 58.9 µM); in the series with Bacillus subtilis, 12.5 µg/mL (≈ 58.9 µM). In addition, the Stability result in series [1] is on record as “Stable”. The IC50 in the series on MCF7 stood at 20.4 µM; in the series on HeLa, 27.5 µM.
GENTAMICIN: the minimal inhibitory concentration (MIC) in the series on Staphylococcus aureus came to 1 µg/mL; in the series on Escherichia coli, 2 µg/mL; with Salmonella, 2 µg/mL; in the series with Bacillus subtilis, 2 µg/mL.
With `Oc1ccccc1-c1nc2ccccc2s1`, the MIC in the series on Staphylococcus aureus, with Escherichia coli, in the series on Salmonella and in the series with Bacillus subtilis was 100 µg/mL (≈ 440 µM) throughout. The IC50 in the series with MCF7 was found to be 26.8 µM; in the series on HeLa it was 30.6 µM.
As for `c1ccc2cc(-c3nc4ccccc4s3)ccc2c1`, the MIC in the series on Staphylococcus aureus, in the series with Escherichia coli, in the series with Salmonella and in the series on Bacillus subtilis was above 200 µg/mL throughout. The figures for the IC50 with MCF7 and in the series on HeLa were 42.3 µM and 48.2 µM, respectively.
Turning to `O=C(O)c1cn(C2CC2)c2cc(N3CCNCC3)c(F)cc2c1=O` [CIPROFLOXACIN], the MIC in the series with Salmonella is 10 µg/mL (≈ 30.2 µM); in the series with Bacillus subtilis it was 25 µg/mL (≈ 75.4 µM).
Consider `c1ccc(-c2nc3ccccc3s2)cc1` [2-PHENYLBENZO[D]THIAZOLE], for which the MIC came out at 50 µg/mL (≈ 237 µM) in the series on Staphylococcus aureus, 50 µg/mL (≈ 237 µM) with Escherichia coli, 25 µg/mL (≈ 118 µM) in the series on Salmonella and 25 µg/mL (≈ 118 µM) in the series on Bacillus subtilis. In addition, the Stability entry in series [1] is on record as “Stable”. The IC50 with MCF7 turned out to be 18.5 µM; in the series on HeLa, 22.1 µM.
Consider `c1ccc2[nH]c(-c3nc4ccccc4s3)cc2c1`, for which the MIC in the series on Staphylococcus aureus, in the series on Escherichia coli, in the series with Salmonella and in the series on Bacillus subtilis was 3.12 µg/mL (≈ 12.5 µM) each time. The values for the 50% inhibitory concentration (IC50) in the series with MCF7 and in the series on HeLa were 9.26 µM and 15.2 µM, respectively.
As for `Fc1ccc(-c2nc3ccccc3s2)cc1`, the MIC in the series with Staphylococcus aureus amounted to 6.25 µg/mL (≈ 27.3 µM); with Escherichia coli it was 6.25 µg/mL (≈ 27.3 µM); in the series on Salmonella it was 12.5 µg/mL (≈ 54.5 µM); in the series on Bacillus subtilis, 12.5 µg/mL (≈ 54.5 µM). For the same compound, the IC50 with MCF7 was found to be 9.85 µM; in the series with HeLa, 16.6 µM.
For `NC[C@H]1O[C@H](O[C@H]2[C@H](O)[C@@H](O[C@H]3O[C@H](CO)[C@@H](O)[C@H](N)[C@H]3O)[C@H](N)C[C@@H]2N)[C@H](N)C[C@@H]1O` [TOBRAMYCIN], the MIC with Staphylococcus aureus was 1.5 µg/mL (≈ 3.21 µM); with Escherichia coli it was 3 µg/mL (≈ 6.42 µM); with Salmonella, 3 µg/mL (≈ 6.42 µM); with Bacillus subtilis, 3 µg/mL (≈ 6.42 µM).
`c1coc(-c2nc3ccccc3s2)c1`: the MIC in the series with Staphylococcus aureus, in the series with Escherichia coli, with Salmonella and with Bacillus subtilis was 50 µg/mL (≈ 248 µM) throughout. The 50% inhibitory concentration (IC50) with MCF7 stood at 17.6 µM; with HeLa, 22.6 µM.
For `Cc1ccccc1-c1nc2ccccc2s1`, the MIC in the series on Staphylococcus aureus, with Escherichia coli, with Salmonella and in the series on Bacillus subtilis was 100 µg/mL (≈ 444 µM) each time. Moreover, the IC50 in the series with MCF7 amounted to 20.4 µM; with HeLa, 28.2 µM.

The values are drawn from ChEMBL document CHEMBL3739282, “An efficient green synthesis of 2-arylbenzothiazole analogues as potent antibacterial and anticancer agents” (Bioorg Med Chem Lett, 2016).
